Test system: T acute lymphoblastic leukemia (T-ALL) cells
Description: Mononuclear human leukemia cells were prepared using Ficoll gradient centrifugation and cryopreserved in liquid nitrogen. The frozen cells were thawed quickly and washed with PBS to remove the cryopreservation reagent. NOD/SCID mice (Institute of Cellular and Organismic Biology, Academia Sinica) were preconditioned with 200 centigray of total body irradiation at 6-8 weeks of age. The leukemia cells were then transplanted to the preconditioned NOD/SCID mice via tail vein. The resulting leukemia blast cells, i.e., T acute lymphoblastic leukemia (T-ALL) cells and acute myelogenous leukemia (AML) cells, were recovered from spleen and used in experiments as described below.
Mice were monitored for leukemia cell engraftment and dissemination by the appearance of human CD45^+ cells in mouse peripheral blood, which were sampled weekly after the 3rd week of cell transplantation. Peripheral blood samples were taken from the tail vein and red blood cells were lysed in ammonium chloride and resuspensed in Phosphate buffered saline (PBS) plus 2% Fetal Bovine Serum (FBS) before cell staining. […] After immunostaining, cells were washed, suspended in PBS plus 2% FBS, and analyzed using FACS Calibur (BD Biosciences). […]

CC[C@]1(O)C[C@H]2CN(CCc3c([nH]c4ccccc34)[C@@](C(=O)OC)(c3cc4c(cc3OC)N(C=O)[C@H]3[C@@](O)(C(=O)OC)[C@H](OC(C)=O)[C@]5(CC)C=CCN6CC[C@]43[C@@H]65)C2)C1 [vincristine]
average survival time (vincristine (0.5 mg/kg ip) alone, days 14, 21, 28): 73.6 ± 7.1 days | time until which CD45+ cells in the peripheral blood were not detected (vincristine (0.5 mg/kg) alone): 8 weeks

Source: patent publication US9375406B2, “Substituted pyrimidines for mobilizing cells expressing a type 4 CXC chemokine receptor” (TaiGen Biotechnology Co., Ltd., priority 2014, dated 2016)
